Experimental findings from patent US20260191925A2, “TISSUE OCCLUDING AGENT COMPRISING AN IEIKIEIKIEIKI PEPTIDE” (3-D Matrix, Ltd., priority 2008, published 2026) are described below.

Entries after “also recorded” stand apart in the source; their conditions may differ. No end group written: not given here.

Data set [1] in a line: Self-assembly of aqueous peptide solution with rabbit bile (Example 10). In kind it is physicochemical. The note with it: covered with rabbit bile, approximately 30 seconds. On the procedure:
(§1) The rabbits were subcutaneously administered (3 mg/kg) Celactar 2% injection (2.0 g content as xylazine in 100 mL, product of Bayer Ltd.), and then ketamine (50 mg content as ketamine in 1 mL, product of Fuji Chemical Industries, Ltd.) was intravenously administered (10 mg/kg) for anesthesia.
The rabbits were laparotomized by median section, and bile was sampled from the gallbladder using a 23 G injection needle (Terumo Corp.).
Droplets of each aqueous peptide solution before self-assembly were prepared (diameter: approximately 5-8 mm), and the sampled bile was gently poured thereover so as to cover the aqueous peptide solution.

Another data set relates to rabbit hepatic incision. In words: Rabbit hepatic transection model (Example 9). The class given is in vivo. As to conditions: 1% solution, 1 minute after treatment, after rinsing with physiological saline. The procedure:
as §1
The rabbits were laparotomized by median section and the hepatic left lobes were exposed and sharply transected with a scalpel to about 1 cm to induce hemorrhage.
After confirming exudative hemorrhage from the incision, the blood was removed as much as possible with gauze and the hepatic incision was treated with aqueous peptide solution.
The gelled aqueous peptide solution was removed 1 minute after treatment using physiological saline, and the presence of any hemorrhage from the hepatic incision was visually confirmed.

In data set [2] the test system is rabbit abdominal aorta. In words: Rabbit abdominal aorta injection needle perforation model (Example 1). As to conditions: for hemostatic effect (hemorrhage visually examined): after release of clamp. The class given is in vivo. On the procedure:
as §1
(§2) The rabbits were laparotomized by median section. Approximately 10 cm of the abdominal aorta and portal vein stem was exposed, each blood vessel was ablated from the surrounding tissue, and the abdominal aorta was punctured with a 23 G injection needle (Terumo Corp.) while the portal vein stem was punctured with a 26 G injection needle (Terumo Corp.).
(§3) Upon confirming hemorrhage, blood flow at the peripheral end and central end was clamped with a hemostatic clamp, and after removing the hemorrhaged blood with physiological saline and gauze, it was immediately treated with the aqueous peptide solution.
(§4) After 1-2 minutes of treatment, blood flow was released and the presence of hemorrhage from the puncture site was visually examined.

For data set [3], the system named is rabbit portal vein stem. In words: Rabbit portal vein stem injection needle perforation model (Example 1). The class given is in vivo. The procedure:
as §1, §2, §3, §4

The test system of another data set is resected liver surface. Briefly: Rabbit partial liver resection model (Example 2). The class given is in vivo. The note with it: for hemorrhage from cut surface after rinsing with physiological saline: FIG. 2; for rabbits showing complete hemostasis: partial liver resection. The procedure:
as §1
The rabbits were laparotomized by median section, and the hepatic left or right lobe was sharply excised to a size of approximately 5 cm width×3 cm length from the edge using a scalpel, to prepare a liver section.
Blood flow was released 1-2 minutes after treatment, the aqueous peptide solution that was gelled was removed by physiological saline, and the presence of any hemorrhage from the resected liver surface s was visually confirmed.
The resected liver surface in which a hemostatic effect was seen were fixed with 20% formalin and histopathologically evaluated by HE staining.

Data set [4] relates to abdominal aorta of rabbits with reduced blood clotting function. Briefly: Abdominal aorta injection needle perforation model of rabbits with suppressed blood clotting function (heparin) (Example 3). The class given is in vivo, rabbit. The note with it: for Observations: heparin 1,000 units. On the procedure: as §1
The rabbits were laparotomized by median section. Approximately 10 cm of the abdominal aorta was exposed, the blood vessel was ablated from the surrounding tissue, and the vessel was punctured with a 26 G, 25 G or 23 G injection needle (Terumo Corp.).
Upon confirming hemorrhage, blood flow at the peripheral end and center end was clamped with a hemostatic clamp, and after removing the hemorrhaged blood with physiological saline and gauze, it was immediately treated with the aqueous peptide solution.
(§5) After 1-2 minutes of treatment, blood flow was released and the presence of hemorrhage was visually examined.

The subject of data set [5] is rabbit abdominal aorta. Briefly: Rabbit abdominal aorta injection needle perforation model, sugar-containing solutions (Example 4). The class given is in vivo. On the procedure: as §1
(§6) The rabbits were laparotomized by median section. Approximately 10 cm of the abdominal aorta and portal vein stem was exposed, each blood vessel was ablated from the surrounding tissue, and the abdominal aorta was punctured with a 26 G, 25 G or 23 G injection needle (Terumo Corp.) while the portal vein stem was punctured with a 26 G injection needle (Terumo Corp.).
as §5

A further data set relates to rabbit bile duct wall. Briefly: Rabbit bile duct injection needle perforation model (Example 6). The class given is in vivo. As to conditions: 26 G needle. The procedure:
as §1
The rabbits were laparotomized by median section. Approximately 10 cm of the bile duct was exposed, and after ablation from the surrounding tissue, the bile duct was punctured with a 26 G injection needle.
After confirming discharge of bile and continuous flow of bile, the bile flow was blocked with a hemostatic clamp.
The leaked bile was removed with physiological saline and gauze, and then treated with 3% aqueous peptide solution.
After 2 minutes of treatment, bile flow blockage was released and the presence of bile flow from the puncture site was visually examined.

Data set [6] concerns canine intravesical tumor / vesical mucosa. In words: Canine intravesical tumorectomy, submucosal injection (Example 7). In kind it is in vivo, dog. The procedure:
Canine intravesical tumorectomy was carried out under general anesthesia management, by the following procedure.
After hypogastric incision with an electrocautery scalpel (Erbe, Inc.), the electrocautery scalpel was used for incision of the bladder to expose the intravesical tumor (pedunculated tumor with a base site diameter of approximately 0.5 cm that is elevated from the vesical mucosa).
3% Aqueous peptide solution was submucosally injected around the tumor base in 4 injections of 0.5 mL each, and elevation of the tumor on the mucosa was confirmed.
After elevating the tumor, the tumor was excised with an electronic scalpel.
The time from aqueous peptide solution injection to complete tumor excision was approximately 2 minutes.

The subject of a further data set is rat portal vein. Briefly: Rat portal vein embolization (Example 11). In kind it is in vivo. As to conditions: 4 mL injected through portal vein stem, liver extracted after 5 minutes, HE staining. On the procedure: The rats were subjected to inhalation anesthesia with diethyl ether (Kishida Chemical Co., Ltd.).
The rats were laparotomized by median section and the portal veins were exposed.
A 4 mL portion of aqueous peptide solution was injected through the portal vein stem with a 26 G injection needle (Terumo Corp.), and hemorrhage from the puncture site was immediately arrested with aqueous peptide solution.
The livers were extracted 5 minutes after injection and immediately fixed with 10% formalin (Wako Pure Chemical Industries, Ltd.).
The tissue was stained with haematoxylin eosin (HE) 1 week after fixing.

Data set [7] deals with rabbit portal vein stem. In words: Rabbit portal vein stem injection needle perforation model, sugar-containing solutions (Example 4). The class given is in vivo. On the procedure:
as §1, §6, §5

Data set [8] relates to rabbit gastric mucosa incision. In words: Rabbit gastric mucosa incision model (Example 8). In kind it is in vivo. The note with it: 1 minute after treatment, after rinsing with physiological saline. On the procedure:
as §1
The rabbits were laparotomized by median section and the stomachs were incised, after which the gastric mucosa was exposed and sharply incised with a scalpel to about 1 cm to induce hemorrhage.
After confirming blood oozing from the incision, the blood was removed as much as possible with gauze and the gastric mucosa incision was treated with aqueous peptide solution.
The gelled aqueous peptide solution was removed 1 minute after treatment using physiological saline, and the presence of any hemorrhage from the gastric mucosa incision was visually confirmed.

With “Ac-(RADA)4-NH2 [1.5% PuraMatrix aqueous peptide solution]”, the bile-induced self-assembly result in data set [1] is listed as “self-assembly confirmed”.

Consider “Ac-(IEIK)3I-CONH2 [1% IEIK13 aqueous peptide solution]”, for which the entries for the “hemostatic effect (hemorrhage from hepatic incision)” value in the data set on rabbit hepatic incision and in the data set with rabbit hepatic incision (listed as IEIK13 aqueous peptide solution) were “no hemorrhage observed from incision site” and “no hemorrhage was observed”, respectively. The bile-induced self-assembly entry in data set [1] is reported as “self-assembly confirmed”.

“Ac-(RADA)4-NH2 [3% aqueous peptide solution] (Ac-RADARADARADARADA-NH2)”: in the data set with rabbit abdominal aorta [2], the “rabbits demonstrating complete hemostasis” value is reported as “two of two”. Further, the “hemostatic effect (hemorrhage visually examined)” value in the data set with rabbit abdominal aorta [2] was “completely hemorrhage-arrested blood vessel”; in [4] (heparin-treated rabbits, 26 G, 25 G and 23 G needle perforation) it was “complete hemostasis; also recorded: perivascular hemorrhage of (b) not seen after declamp”. In addition, the “cases demonstrating complete hemostasis” value in the data set with rabbit portal vein stem [3] is “two of two”. Moreover, in the data set with resected liver surface, the “hemorrhage from cut surface after rinsing with physiological saline” value is “hemorrhage observed from cut surface”. Further, the “rabbits showing complete hemostasis” value with resected liver surface is on record as 1 of 4. Also, the Observations entry was “Complete hemostasis” in data set [4] (23 G needle), “Complete hemostasis” in data set [4] (25 G needle), “Complete hemostasis” in [4] (26 G needle) and “Aqueous peptide solution gelled” with rabbit bile duct wall. Besides, the Observation entry in the data set with rabbit abdominal aorta [5] (23 G needle), in the data set on rabbit abdominal aorta [5] (25 G needle) and in the data set with rabbit abdominal aorta [5] (26 G needle) was “Complete” throughout. In the data set on rabbit bile duct wall, the “bile duct wall occlusion effect (bile leakage)” value is reported as “complete bile duct wall occlusion effect; also recorded: bile leakage of (b) not observed around bile duct”. In addition, in data set [6] (excision by electrocautery), the “hemorrhage at excision site after tumor excision” value is on record as “no hemorrhage at excision site after tumor excision”. The “hemorrhage at excision site during tumor excision” value in [6] (excision by electrocautery) is given as “no hemorrhage at excision site during tumor excision”. The “mucosal swelling (elevation) of excision site” value in [6] (submucosal injection, 4 injections of 0.5 mL) is listed as “swelling of affected area confirmed”. The portal vein embolization entry with rat portal vein is “Embolization of portal vein confirmed”.

Take “Ac-(KLDL)3-CONH2 (Ac-KLDLKLDLKLDL-NH2) [1% KLD aqueous peptide solution]”: the “hemostatic effect (hemorrhage from hepatic incision)” value in the data set on rabbit hepatic incision is on record as “no hemorrhage observed from incision site”; with rabbit hepatic incision (listed as KLD aqueous peptide solution), “no hemorrhage was observed”. In addition, in [1], the bile-induced self-assembly entry is “self-assembly confirmed”.

On to “Ac-(RADA)4-NH2 (Ac-RADARADARADARADA-NH2) [2% aqueous peptide solution]”, for which the “hemostatic effect (compared between the solutions)” value with rabbit portal vein stem [7] (portal vein stem 26 G needle perforation) was “equivalent”. For the same substance, the Observation entry in the data set with rabbit portal vein stem [7] (portal vein stem, 26 G needle) is “Complete”. In addition, the “hemorrhage from gastric mucosa incision” value in data set [8] is given as “no hemorrhage from incision site”.

Turning to “Ac-(RADA)4-NH2 [1% aqueous peptide solution] (Ac-RADARADARADARADA-NH2)”, the “hemostatic effect (hemorrhage visually examined)” value with rabbit abdominal aorta [2] was “hemostasis was not complete; also recorded: resumed hemorrhage following declamp”; in the data set with rabbit portal vein stem [3] it was “persistent phleborrhagia”. For the same substance, in the data set with resected liver surface, the “hemorrhage from cut surface after rinsing with physiological saline” value is “no hemorrhage observed from cut surface”. The “rabbits showing complete hemostasis” value in the data set with resected liver surface is listed as “two of two”.

Consider “1% IEIK9 aqueous peptide solution: 1% aqueous peptide solution, peptide sequence IEIK9 (SEQ ID NO: 4) (Ac-IEIKIEIKI)”, for which the “hemostatic effect (hemorrhage from hepatic incision)” value is on record as “hemorrhage observed from incision site” in the data set with rabbit hepatic incision and “no hemostatic effect” in the data set with rabbit hepatic incision (listed as IEIK9 aqueous peptide solution). Also, the bile-induced self-assembly entry in data set [1] is on record as “virtually no self-assembly seen”.
